Experimental findings from the NIST ThermoML archive (doi:10.1021/je049801y) are described below.

For the data set the following is noted: Crystal.

Each structure is given as a SMILES string. Numbers after ± are expanded uncertainties.

As to `O=C(O)c1cccc(C(=O)O)c1` [1,3-benzenedicarboxylic acid], the Normal melting temperature was found to be 348.1 ± 1 °C.
The figure for `O=C(O)c1ccc(C(=O)O)cc1` [1,4-benzenedicarboxylic acid] is 430.0 ± 1 °C; for `Cc1ccc(C(=O)O)cc1` [4-methylbenzoic acid] it is 182.0 ± 1 °C.
The figure for `O=C(O)c1ccccc1` [benzoic acid] is 122.4 ± 1 °C.
